From patent US20260159512A1, “BCAT2 INHIBITORS” (AGIOS PHARMACEUTICALS, INC., priority 2021, published 2026)

Columns and labels:
BCAT2 = target: T1, BCAT2 (Homo sapiens, UniProt O15382); experiment: BCAT2 in vitro enzyme inhibition assay (resazurin/diaphorase-coupled fluorescence); assay type: biochemical; settings: average where tested multiple times
T1 sequence (O15382 28-392): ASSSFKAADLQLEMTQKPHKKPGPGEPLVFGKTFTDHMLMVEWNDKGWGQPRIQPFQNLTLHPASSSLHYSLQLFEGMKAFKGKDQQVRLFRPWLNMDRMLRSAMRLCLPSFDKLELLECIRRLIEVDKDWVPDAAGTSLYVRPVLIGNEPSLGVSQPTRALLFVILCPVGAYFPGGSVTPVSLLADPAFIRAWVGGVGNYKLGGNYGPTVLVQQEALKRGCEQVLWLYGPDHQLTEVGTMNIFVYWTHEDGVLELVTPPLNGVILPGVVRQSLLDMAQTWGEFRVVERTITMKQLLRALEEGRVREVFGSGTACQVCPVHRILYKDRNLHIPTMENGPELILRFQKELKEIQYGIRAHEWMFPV
How it was run: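 Coupled fluorescence readout: glutamate formed from L-leucine/α-ketoglutarate transamination drives GDH/NAD/diaphorase reduction of resazurin (Ex 540/Em 590). Human BCAT2 was first exposed 1 h at room temperature to compound, top final 100 μM in 3-fold, 10-point series; substrate reaction ran 1 h before SDS quench, in technical duplicate with DMSO max and enzyme-free min controls.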

hBCAT1 = target: T2, hBCAT1 (Homo sapiens, UniProt P54687); experiment: BCAT1 in vitro enzyme inhibition assay (resazurin/diaphorase-coupled fluorescence); assay type: biochemical; settings: average where tested multiple times
T2 sequence (P54687 1-386): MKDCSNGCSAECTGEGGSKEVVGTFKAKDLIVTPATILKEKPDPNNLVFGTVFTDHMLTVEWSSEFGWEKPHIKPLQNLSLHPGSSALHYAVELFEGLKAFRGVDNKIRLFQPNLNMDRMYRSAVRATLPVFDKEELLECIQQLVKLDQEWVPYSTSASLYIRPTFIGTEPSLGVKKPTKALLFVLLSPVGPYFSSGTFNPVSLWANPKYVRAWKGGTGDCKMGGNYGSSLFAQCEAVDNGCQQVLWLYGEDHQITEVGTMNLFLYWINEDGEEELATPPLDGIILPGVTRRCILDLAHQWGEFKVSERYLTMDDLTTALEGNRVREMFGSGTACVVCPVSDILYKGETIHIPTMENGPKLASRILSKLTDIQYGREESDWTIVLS
Description: BCAT1 In Vitro Enzyme Inhibition Assay
Meanwhile the Substrate Mix was prepared.
Test Compound Preparation:
Test compounds were prepared at 50× final concentration in DMSO, 1 to 3 dilutions were made for 10 points. The compounds were added to the assay as a 1 to 50 dilution (1 μL in 50 μL) to yield a top assay final concentration of 100 μM, decreasing 3-fold for 10 points. […] All tests were performed in technical duplicate.
Where a compound was tested multiple times, the average value of the tests is reported.

SMILES	IC50 (BCAT2) [nM]	IC50 (hBCAT1) [nM]
O=C(N[C@H]1CCC[C@@H](n2c(-c3ccccn3)nc3cc(-n4cncn4)ncc32)C1)c1ccc(Br)s1 [Example 150, 5-bromo-N-((1S,3R)-3-(2-(pyridin-2-yl)-6-(1H-1,2,4-triazol-1-yl)-3H-imidazo[4,5-c]pyridin-3-yl)cyclohexyl)thiophene-2-carboxamide]	500 to 1000	> 5000
O=C(N[C@H]1CCC[C@@H](n2c(-n3cccn3)nc3cnc(-n4ccnn4)cc32)C1)c1ncc(C(F)F)s1 [Example 57, N-((1S,3R)-3-(2-(1H-pyrazol-1-yl)-6-(1H-1,2,3-triazol-1-yl)-1H-imidazo[4,5-c]pyridin-1-yl)cyclohexyl)-5-(difluoromethyl)thiazole-2-carboxamide]	500 to 1000	> 5000
O=C(NC1COCC(n2c(-c3ccccn3)nc3cnc(-n4ccnn4)cc32)C1)c1ncc(C(F)F)s1 (single isomer, unassigned) [Example 146, 5-(difluoromethyl)-N-(5-(2-(pyridin-2-yl)-6-(1H-1,2,3-triazol-1-yl)-1H-imidazo[4,5-c]pyridin-1-yl)tetrahydro-2H-pyran-3-yl)thiazole-2-carboxamide]	> 1000	> 5000
Cn1ccc(Oc2cc3c(cn2)nc(-c2ncccc2F)n3[C@@H]2CCC[C@H](NC(=O)c3ncc(C(F)F)s3)C2)n1 [Example 268, 5-(difluoromethyl)-N-((1S,3R)-3-(2-(3-fluoropyridin-2-yl)-6-((1-methyl-1H-pyrazol-3-yl)oxy)-1H-imidazo[4,5-c]pyridin-1-yl)cyclohexyl)thiazole-2-carboxamide]	500 to 1000	> 5000
O=C(NC1COCC(n2c(-c3ncccc3F)nc3cnc(-n4ccnn4)cc32)C1)c1ncc(C(F)F)s1 (single isomer, unassigned) [Example 144, 5-(difluoromethyl)-N-(5-(2-(3-fluoropyridin-2-yl)-6-(1H-1,2,3-triazol-1-yl)-1H-imidazo[4,5-c]pyridin-1-yl)tetrahydro-2H-pyran-3-yl)thiazole-2-carboxamide]	500 to 1000	> 5000
CC(C)(O)c1nc2cnc(-n3cncn3)cc2n1[C@@H]1CCC[C@H](NC(=O)c2ccc(Br)s2)C1 [Example 92, 5-bromo-N-((1S,3R)-3-(2-(2-hydroxypropan-2-yl)-6-(1H-1,2,4-triazol-1-yl)-1H-imidazo[4,5-c]pyridin-1-yl)cyclohexyl)thiophene-2-carboxamide]	> 1000	> 5000
CC(=O)N1CC(NC(=O)c2ccc(Br)s2)CC(n2c(-c3ccccn3)nc3cc(-c4nnco4)ccc32)C1 (centres unmarked) [Example 282, N-(5-(5-(1,3,4-oxadiazol-2-yl)-2-(pyridin-2-yl)-1H-benzo[d]imidazol-1-yl)-1-acetylpiperidin-3-yl)-5-bromothiophene-2-carboxamide]	100 to 500	> 5000
O=C(N[C@H]1CCC[C@@H](n2c(-c3ccccc3F)nc3cnc(-c4c(F)cccc4F)cc32)C1)c1ncc(Cl)s1 [Example 207, 5-chloro-N-((1S,3R)-3-(6-(2,6-difluorophenyl)-2-(2-fluorophenyl)-1H-imidazo[4,5-c]pyridin-1-yl)cyclohexyl)thiazole-2-carboxamide]	100 to 500	> 5000
O=C(NC1CCC(n2c(-c3ccccn3)nc3cnc(-n4ccnn4)cc32)C1)c1ccc(Br)s1 (centres unmarked) [Example 94, 5-bromo-N-(3-(2-(pyridin-2-yl)-6-(1H-1,2,3-triazol-1-yl)-1H-imidazo[4,5-c]pyridin-1-yl)cyclopentyl)thiophene-2-carboxamide]	> 1000	> 5000
O=C(N[C@H]1CCC[C@@H](n2c(-c3ncccc3F)nc3cnc(N4CCNC4=O)cc32)C1)c1ncc(C(F)F)s1 [Example 54, 5-(difluoromethyl)-N-((1S,3R)-3-(2-(3-fluoropyridin-2-yl)-6-(2-oxoimidazolidin-1-yl)-1H-imidazo[4,5-c]pyridin-1-yl)cyclohexyl)thiazole-2-carboxamide]	≤ 100	> 5000
O=C(N[C@H]1CCC[C@@H](n2c(-c3ccccc3F)nc3cnc(-n4cncn4)cc32)C1)c1ccc(Br)s1 [Example 17, 5-bromo-N-((1S,3R)-3-(2-(2-fluorophenyl)-6-(1H-1,2,4-triazol-1-yl)-1H-imidazo[4,5-c]pyridin-1-yl)cyclohexyl)thiophene-2-carboxamide]	≤ 100	< 500
C[C@@H]1CCCN1c1cc2c(cn1)nc(-c1ccccc1F)n2[C@@H]1CCC[C@H](NC(=O)c2ncc(Cl)s2)C1 [Example 195, 5-chloro-N-((1S,3R)-3-(2-(2-fluorophenyl)-6-((R)-2-methylpyrrolidin-1-yl)-1H-imidazo[4,5-c]pyridin-1-yl)cyclohexyl)thiazole-2-carboxamide]	100 to 500	1000 to 5000

The next lines start with the values.

IC50 (BCAT2) [nM]	IC50 (hBCAT1) [nM]	SMILES
≤ 100	< 500	O=C(N[C@H]1CCC[C@@H](n2c(N3CCCCC3)nc3cnc(-c4nc[nH]n4)cc32)C1)c1ccc(Cl)s1 [Example 372, 5-chloro-N-((1S,3R)-3-(2-(piperidin-1-yl)-6-(1H-1,2,4-triazol-3-yl)-1H-imidazo[4,5-c]pyridin-1-yl)cyclohexyl)thiophene-2-carboxamide]
100 to 500	1000 to 5000	Cc1nsc(-c2cc3c(cn2)nc(CC(C)C)n3[C@@H]2CCC[C@H](NC(=O)c3ncc(Cl)s3)C2)n1 [Example 336, 5-chloro-N-((1S,3R)-3-(2-isobutyl-6-(3-methyl-1,2,4-thiadiazol-5-yl)-1H-imidazo[4,5-c]pyridin-1-yl)cyclohexyl)thiazole-2-carboxamide]
> 1000	> 5000	O=C(N[C@H]1CCC[C@@H](n2c(-c3ncccc3F)nc3cnc(N4CCC4)cc32)C1)c1ccc(Br)s1 [Example 300]
100 to 500	1000 to 5000	CC(C)Cc1nc2cnc(-c3cccc4ccoc34)cc2n1[C@@H]1CCC[C@H](NC(=O)c2ncc(Cl)s2)C1 [Example 327, N-((1S,3R)-3-(6-(benzofuran-7-yl)-2-isobutyl-1H-imidazo[4,5-c]pyridin-1-yl)cyclohexyl)-5-chlorothiazole-2-carboxamide]
≤ 100	< 500	CC(C)Cc1nc2cnc(-c3nc[nH]n3)cc2n1[C@@H]1C[C@H](NC(=O)c2ccc(Cl)s2)CC(F)(F)C1 (stereo in doubt) [Example 454, 5-chloro-N-((1S,5R)-3,3-difluoro-5-(2-isobutyl-6-(1H-1,2,4-triazol-3-yl)-1H-imidazo[4,5-c]pyridin-1-yl)cyclohexyl)thiophene-2-carboxamide]
> 1000	> 5000	O=C(N[C@H]1CCC[C@@H](n2c(-c3ccccc3F)nc3cnc(N4CCC4)cc32)C1)c1ccc(Br)s1 [Example 301, N-((1S,3R)-3-(6-(azetidin-1-yl)-2-(2-fluorophenyl)-1H-imidazo[4,5-c]pyridin-1-yl)cyclohexyl)-5-bromothiophene-2-carboxamide]
≤ 100	1000 to 5000	CC(=O)N1CC(NC(=O)c2ccc(Br)s2)CC(n2c(-c3ccccn3)nc3cc(-c4ncon4)ccc32)C1 (centres unmarked) [Example 284, N-(5-(5-(1,2,4-oxadiazol-3-yl)-2-(pyridin-2-yl)-1H-benzo[d]imidazol-1-yl)-1-acetylpiperidin-3-yl)-5-bromothiophene-2-carboxamide]
> 1000	1000 to 5000	CC(C)Cc1nc2cnc(-n3nccn3)cc2n1[C@H]1CCC[C@@H](NC(=O)c2ccc(Cl)s2)[C@@H]1O [Example 394, 5-chloro-N-((1R,2S,3S)-2-hydroxy-3-(2-isobutyl-6-(2H-1,2,3-triazol-2-yl)-1H-imidazo[4,5-c]pyridin-1-yl)cyclohexyl)thiophene-2-carboxamide]
≤ 100	> 5000	CNC(=O)c1cc2nc(-c3ccccn3)n(C3CC(NC(=O)c4ccc(Br)s4)CN(C)C3)c2cc1OC (centres unmarked) [Example 290, 1-(5-(5-bromothiophene-2-carboxamido)-1-methylpiperidin-3-yl)-6-methoxy-N-methyl-2-(pyridin-2-yl)-1H-benzo[d]imidazole-5-carboxamide]
≤ 100	1000 to 5000	CNC(=O)c1ccc2c(c1)nc(-c1ccccn1)n2C1CC(NC(=O)c2ccc(Br)s2)CN(C(N)=O)C1 (centres unmarked) [Example 293, 1-(5-(5-bromothiophene-2-carboxamido)-1-carbamoylpiperidin-3-yl)-N-methyl-2-(pyridin-2-yl)-1H-benzo[d]imidazole-5-carboxamide]
